Several values for one entry are separate records, joined by “and”; a condition that tells them apart may be missing. Equal values may be shown once.
Experiment: Phase 2A study (Magnolia) in women with postpartum depression: ganaxolone plasma concentrations / pharmacokinetics
Conditions: for Ratio GNX Concentration (ng/mL)/(μg/hr/kg): individual subjects of Cohorts 1-3 (order of Table 1A), listed as GNX
Method: Approximately 200 women with PPD 18 to 45 years of age are screened to randomize up to 100 subjects across up to 6 cohorts. Approximately 10-30 subjects are randomized into each cohort. Randomized subjects receive the investigational product (IP), ganaxolone or matching placebo in a 1:1 ratio. In Cohorts 1-5 the IP is administered intravenously over 60 hours. In Cohort 6 the dosing is initiated with a 6-hour intravenous (IV) infusion followed by oral dosing for 28 days plus 3-day taper.
Ganaxolone is infused at a rate of 4 mg/hr (16 ml/h of ganaxolone 0.25 mg/ml solution) for 48 hours and then, to minimize any risks for withdrawal or rebound of anxiety and depression symptoms, at a rate of 2 mg/hr for the next 12 hours. The infusion is stopped at 60 hours. Total of 9 subjects are dosed for this cohort.
Ganaxolone is infused at a rate of 8 mg/hr (16 ml/h of ganaxolone 0.5 mg/ml solution) for 48 hours and then at a rate of 4 mg/hr for the next 12 hours. This dose is approximately double the expected plasma exposure as compared to Cohort 1 at steady state (Cohort 2 expected plasma concentration ˜100-120 ng/mL). The infusion is stopped at 60 hours.
Twelve mg bolus of ganaxolone is initially given over 2 minutes followed by ganaxolone infusion at a rate of 12 mg/hr (24 ml/h of ganaxolone 0.5 mg/ml solution) for 48 hours. The rate is then reduced to 6 mg/hr for the next 12 hours, which is done to minimize any risks for withdrawal or rebound of anxiety and depression symptoms. The infusion is stopped at 60 hours.
In this cohort dosing is initiated with ganaxolone infusion at a rate of 20 mg/hr (40 ml/h of ganaxolone 0.5 mg/ml solution or matching placebo) for 6 hours followed by ganaxolone 900 mg (four 225 mg capsules per dose) or matching placebo capsules given orally at dinner time for 28 days followed by a 3-day taper (three, two, and one 225 mg capsule(s) per day, respectively).
This initial infusion is targeted to provide a fast onset of antidepressant activity by delivery of rapid plasma exposures to ganaxolone. Then, at dinner time of Day 1 the subjects take their first oral dose of ganaxolone 900 mg (four 225 mg capsules) or matching placebo (4 capsules). […] In previous studies, ganaxolone has been given up to a daily dose of 2000 mg, and at single doses of 1000 mg.
Six samples are collected for pharmacokinetic analysis in Cohorts 1-5 and 12 samples in Cohort 6. […] Seven samples are collected during the inpatient phase of Cohort 6 (including 6 samples on Day 1) followed by collection of 5 samples during the outpatient phase during the study visits for a total of 12 samples in Cohort 6.

[1] = female, human, plasma, intravenous, 220 μg/kg/hr, Mean average GNX Concentration, calculated for dose 220 μg/kg/hr
[2] = female, human, plasma, intravenous, 260 μg/kg/hr, Mean average GNX Concentration, calculated for dose 260 μg/kg/hr
[3] = female, human, plasma, iv, GNX Concentration, Cohort 1: IV 4 mg/hr for 48 h then 2 mg/hr for 12 h, individual subjects

CC(=O)[C@H]1CC[C@H]2[C@@H]3CC[C@H]4C[C@](C)(O)CC[C@]4(C)[C@H]3CC[C@]12C [ganaxolone, 3α-hydroxy-3β-methyl-5α-pregnan-20-one]
concentration at 48 h (female, human, plasma, intravenous, 210 μg/kg/hr, Mean average GNX Concentration, calculated for dose 210 μg/kg/hr): 246 ng/mL | concentration at 12 h [1]: 208 ng/mL | concentration at 24 h [1]: 233 ng/mL | concentration at 48 h [1]: 257 ng/mL | concentration at 12 h [2]: 246 ng/mL | concentration at 24 h [2]: 276 ng/mL | concentration at 48 h [2]: 304 ng/mL | AUC (female, human, plasma, iv, 86 ug/kg, AUC12-24, calculated from Table 1C, dose 86 μg/kg/hr (row order of Table 1C)): 1040 ng·h/mL | AUC (female, human, plasma, iv, 86 ug/kg, AUC12-48, calculated from Table 1C, dose 86 μg/kg/hr (row order of Table 1C)): 3340 ng·h/mL | AUC (female, human, plasma, iv, 86 ug/kg, AUC24-48, calculated from Table 1C, dose 86 μg/kg/hr (row order of Table 1C)): 2300 ng·h/mL | AUC (female, human, plasma, iv, 150 ug/kg, AUC12-24, calculated from Table 1C, dose 150 μg/kg/hr (row order of Table 1C)): 1810 ng·h/mL | AUC (female, human, plasma, iv, 150 ug/kg, AUC12-48, calculated from Table 1C, dose 150 μg/kg/hr (row order of Table 1C)): 5820 ng·h/mL | AUC (female, human, plasma, iv, 150 ug/kg, AUC24-48, calculated from Table 1C, dose 150 μg/kg/hr (row order of Table 1C)): 4010 ng·h/mL | AUC (female, human, plasma, iv, 160 ug/kg, AUC12-24, calculated from Table 1C, dose 160 μg/kg/hr (row order of Table 1C)): 1930 ng·h/mL | AUC (female, human, plasma, iv, 160 ug/kg, AUC12-48, calculated from Table 1C, dose 160 μg/kg/hr (row order of Table 1C)): 6210 ng·h/mL | AUC (female, human, plasma, iv, 160 ug/kg, AUC24-48, calculated from Table 1C, dose 160 μg/kg/hr (row order of Table 1C)): 4280 ng·h/mL | AUC (female, human, plasma, iv, 170 ug/kg, AUC12-24, calculated from Table 1C, dose 170 μg/kg/hr (row order of Table 1C)): 2050 ng·h/mL | AUC (female, human, plasma, iv, 170 ug/kg, AUC12-48, calculated from Table 1C, dose 170 μg/kg/hr (row order of Table 1C)): 6600 ng·h/mL | AUC (female, human, plasma, iv, 170 ug/kg, AUC24-48, calculated from Table 1C, dose 170 μg/kg/hr (row order of Table 1C)): 4550 ng·h/mL | AUC (female, human, plasma, iv, 180 ug/kg, AUC12-24, calculated from Table 1C, dose 180 μg/kg/hr (row order of Table 1C)): 2170 ng·h/mL | AUC (female, human, plasma, iv, 180 ug/kg, AUC12-48, calculated from Table 1C, dose 180 μg/kg/hr (row order of Table 1C)): 6980 ng·h/mL | AUC (female, human, plasma, iv, 180 ug/kg, AUC24-48, calculated from Table 1C, dose 180 μg/kg/hr (row order of Table 1C)): 4820 ng·h/mL | AUC (female, human, plasma, iv, 190 ug/kg, AUC12-24, calculated from Table 1C, dose 190 μg/kg/hr (row order of Table 1C)): 2290 ng·h/mL | AUC (female, human, plasma, iv, 190 ug/kg, AUC12-48, calculated from Table 1C, dose 190 μg/kg/hr (row order of Table 1C)): 7370 ng·h/mL | AUC (female, human, plasma, iv, 190 ug/kg, AUC24-48, calculated from Table 1C, dose 190 μg/kg/hr (row order of Table 1C)): 5080 ng·h/mL | AUC (female, human, plasma, iv, 200 ug/kg, AUC12-24, calculated from Table 1C, dose 200 μg/kg/hr (row order of Table 1C)): 2410 ng·h/mL | AUC (female, human, plasma, iv, 200 ug/kg, AUC12-48, calculated from Table 1C, dose 200 μg/kg/hr (row order of Table 1C)): 7760 ng·h/mL | AUC (female, human, plasma, iv, 200 ug/kg, AUC24-48, calculated from Table 1C, dose 200 μg/kg/hr (row order of Table 1C)): 5350 ng·h/mL | AUC (female, human, plasma, iv, 210 ug/kg, AUC12-24, calculated from Table 1C, dose 210 μg/kg/hr (row order of Table 1C)): 2530 ng·h/mL | AUC (female, human, plasma, iv, 210 ug/kg, AUC12-48, calculated from Table 1C, dose 210 μg/kg/hr (row order of Table 1C)): 8150 ng·h/mL | AUC (female, human, plasma, iv, 210 ug/kg, AUC24-48, calculated from Table 1C, dose 210 μg/kg/hr (row order of Table 1C)): 5620 ng·h/mL | AUC (female, human, plasma, iv, 220 ug/kg, AUC12-24, calculated from Table 1C, dose 220 μg/kg/hr (row order of Table 1C)): 2650 ng·h/mL | AUC (female, human, plasma, iv, 220 ug/kg, AUC12-48, calculated from Table 1C, dose 220 μg/kg/hr (row order of Table 1C)): 8540 ng·h/mL | AUC (female, human, plasma, iv, 220 ug/kg, AUC24-48, calculated from Table 1C, dose 220 μg/kg/hr (row order of Table 1C)): 5890 ng·h/mL | AUC (female, human, plasma, iv, 260 ug/kg, AUC12-24, calculated from Table 1C, dose 260 μg/kg/hr (row order of Table 1C)): 3130 ng·h/mL | AUC (female, human, plasma, iv, 260 ug/kg, AUC12-48, calculated from Table 1C, dose 260 μg/kg/hr (row order of Table 1C)): 10100 ng·h/mL | AUC (female, human, plasma, iv, 260 ug/kg, AUC24-48, calculated from Table 1C, dose 260 μg/kg/hr (row order of Table 1C)): 6960 ng·h/mL | concentration at 12 h [3]: 58.8 ng/mL | concentration at 24 h [3]: 72.6 ng/mL | concentration at 48 h [3]: 78.1 ng/mL | concentration at 72 h (female, human, plasma, iv, GNX Concentration, Cohort 1: IV 4 mg/hr for 48 h then 2 mg/hr for 12 h, individual subjects, time 72 hr): 10.1 ng/mL | Ratio GNX Concentration (ng/mL)/(μg/hr/kg) (time 12 hrs): 0.99 (ng/mL)/(μg/hr/kg) and 1.24 (ng/mL)/(μg/hr/kg) and 0.74 (ng/mL)/(μg/hr/kg) and 1.21 (ng/mL)/(μg/hr/kg) (3×) and 0.94 (ng/mL)/(μg/hr/kg) and 0.90 (ng/mL)/(μg/hr/kg) and 0.87 (ng/mL)/(μg/hr/kg) and 0.76 (ng/mL)/(μg/hr/kg) and 1.08 (ng/mL)/(μg/hr/kg) (2×) and 0.53 (ng/mL)/(μg/hr/kg) and 1.14 (ng/mL)/(μg/hr/kg) and 0.83 (ng/mL)/(μg/hr/kg) and 0.89 (ng/mL)/(μg/hr/kg) and 0.97 (ng/mL)/(μg/hr/kg) (3×) and 0.82 (ng/mL)/(μg/hr/kg) and 0.80 (ng/mL)/(μg/hr/kg) (2×) and 1.02 (ng/mL)/(μg/hr/kg) and 0.86 (ng/mL)/(μg/hr/kg) and 0.60 (ng/mL)/(μg/hr/kg) and 1.28 (ng/mL)/(μg/hr/kg) | Ratio GNX Concentration (ng/mL)/(μg/hr/kg) (time 24 hrs): 1.22 (ng/mL)/(μg/hr/kg) (3×) and 1.45 (ng/mL)/(μg/hr/kg) and 0.96 (ng/mL)/(μg/hr/kg) (2×) and 1.53 (ng/mL)/(μg/hr/kg) and 0.28 (ng/mL)/(μg/hr/kg) and 0.63 (ng/mL)/(μg/hr/kg) and 1.12 (ng/mL)/(μg/hr/kg) (3×) and 1.32 (ng/mL)/(μg/hr/kg) (2×) and 0.86 (ng/mL)/(μg/hr/kg) and 1.36 (ng/mL)/(μg/hr/kg) and 1.03 (ng/mL)/(μg/hr/kg) (2×) and 1.16 (ng/mL)/(μg/hr/kg) and 1.34 (ng/mL)/(μg/hr/kg) and 0.95 (ng/mL)/(μg/hr/kg) and 0.92 (ng/mL)/(μg/hr/kg) and 1.48 (ng/mL)/(μg/hr/kg) and 0.55 (ng/mL)/(μg/hr/kg) and 0.13 (ng/mL)/(μg/hr/kg) | Ratio GNX Concentration (ng/mL)/(μg/hr/kg) (time 48 hrs): 1.31 (ng/mL)/(μg/hr/kg) and 1.39 (ng/mL)/(μg/hr/kg) and 1.42 (ng/mL)/(μg/hr/kg) and 1.12 (ng/mL)/(μg/hr/kg) and 1.23 (ng/mL)/(μg/hr/kg) (2×) and 1.01 (ng/mL)/(μg/hr/kg) and 0.97 (ng/mL)/(μg/hr/kg) and 1.06 (ng/mL)/(μg/hr/kg) and 0.81 (ng/mL)/(μg/hr/kg) and 1.09 (ng/mL)/(μg/hr/kg) and 0.78 (ng/mL)/(μg/hr/kg) (2×) and 1.02 (ng/mL)/(μg/hr/kg) and 1.76 (ng/mL)/(μg/hr/kg) and 1.17 (ng/mL)/(μg/hr/kg) and 1.47 (ng/mL)/(μg/hr/kg) and 1.20 (ng/mL)/(μg/hr/kg) and 1.60 (ng/mL)/(μg/hr/kg) and 0.55 (ng/mL)/(μg/hr/kg) and 1.56 (ng/mL)/(μg/hr/kg) and 0.80 (ng/mL)/(μg/hr/kg) and 0.84 (ng/mL)/(μg/hr/kg) | Ratio GNX Concentration (ng/mL)/(μg/hr/kg) (time 72 hrs): 0.17 (ng/mL)/(μg/hr/kg) (2×) and 0.31 (ng/mL)/(μg/hr/kg) and 0.28 (ng/mL)/(μg/hr/kg) and 0.33 (ng/mL)/(μg/hr/kg) (2×) and 0.18 (ng/mL)/(μg/hr/kg) and 0.10 (ng/mL)/(μg/hr/kg) and 0.25 (ng/mL)/(μg/hr/kg) and 0.32 (ng/mL)/(μg/hr/kg) and 0.29 (ng/mL)/(μg/hr/kg) and 0.24 (ng/mL)/(μg/hr/kg) and 0.21 (ng/mL)/(μg/hr/kg) (2×) and 0.36 (ng/mL)/(μg/hr/kg) and 0.16 (ng/mL)/(μg/hr/kg) (2×) and 0.13 (ng/mL)/(μg/hr/kg) (2×) and 0.23 (ng/mL)/(μg/hr/kg) (2×) and 0.34 (ng/mL)/(μg/hr/kg) and 0.35 (ng/mL)/(μg/hr/kg) and 0.38 (ng/mL)/(μg/hr/kg) and 0.19 (ng/mL)/(μg/hr/kg) (2×)

Source: patent US11266662B2, “Ganaxolone for use in prophylaxis and treatment of postpartum depression” (Marinus Pharmaceuticals, Inc., priority 2018, dated 2022)
